Source: the supplement of paper PMC11208160

Experiment: recombinant barcode read abundance after kanamycin selection (control-corrected) (log10(CPM+1)); higher = more efficient recombination; sequences stand for … in AGTGCAGAGAAAATCGGCCAGTTTTCTCTGCCTGCAGTCCGCATGCCGT…AGATTTATGCAGCGGACTGCCTTTCTCCCAAAGTGATAAACCGGACAGTATCATGGACCGGTTTTCCCGGTAATCCGTATTTGCAAGGTTGGTTTCACT; site = the 11-nt target
How it was run: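 Reported as log10(CPM+1), each value stands for recombination efficiency. That efficiency is the averaged, control-corrected counts per million of barcodes found at recombinant junctions. Cells from a pooled E. coli library pairing targets with IS621 bridge RNA target-binding loops were plated twice on chloramphenicol/ampicillin LB agar (control) and twice on chloramphenicol/ampicillin/kanamycin with 0.1 mM IPTG.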
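Note: IS621 recombinase and bridge RNA in Escherichia coli cells.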

Sequence	recombinant barcode read abundance (log10)
GGGGTGTCTTGGGTTCTAACCTGTTGCCG (site ATTTAACCTAC)	0.0514
GGGGTGTCTTGGGTTCTAACCTGTTGCCG (site GGGGTGTCTCG)	0.675
GGGGTGTCTTGGGTTCTAACCTGTTGCTG (site GGGCTGTCTAA)	0.448
GGGGTGTCTTGGGTTCTAACCTGTTGCTG (site GGGGTGTCTCA)	0.413
GGGGTTCCTTGGGTTCTAACCTGTTGCAT (site GGGGTTCCTAA)	0.164
GGGGTTCCTTGGGTTCTAACCTGTTGCAT (site GGGGTTCCTAC)	0.129
GGGGTTCCTTGGGTTCTAACCTGTTGCAT (site GGGGTTCCTAG)	1.19
GGGGTTCCTTGGGTTCTAACCTGTTGCAT (site GGGGTTCCTAT)	2.47
GGGTCACCTTGGGTTCTAACCTGTTGCGG (site CCAAAGACTAA)	0.564
GGGTCACCTTGGGTTCTAACCTGTTGCGG (site GGGTCACCTCC)	2.8
GGGTCCACTTGGGTTCTAACCTGTTGCGG (site GGGTCCACTCC)	2.02
GGGTCCACTTGGGTTCTAACCTGTTGCGG (site GGGTCCACTTG)	0.143
GGGTCGCCTTGGGTTCTAACCTGTTGCTT (site CGGCCGCCTAA)	0.364
GGGTCGCCTTGGGTTCTAACCTGTTGCTT (site GGGTCGCCTAA)	0.128
GGGTCGGCTTGGGTTCTAACCTGTTGCGT (site GGGTCGGCTAC)	2.68
GGGTCGGCTTGGGTTCTAACCTGTTGCGT (site GGGTCGGCTCC)	0.076
GGGTCGGCTTGGGTTCTAACCTGTTGCGT (site GGGTCGGCTGC)	0.347
GGGTCGGCTTGGGTTCTAACCTGTTGCGT (site GGGTCGGCTTC)	0.0402
GGGTCTTCTTGGGTTCTAACCTGTTGCAT (site GGGACTTCTAT)	0.0343
GGGTCTTCTTGGGTTCTAACCTGTTGCAT (site GGGCCTTCTAT)	0.152
GGGTCTTCTTGGGTTCTAACCTGTTGCAT (site GGGGCTTCTAT)	0.0588
GGGTCTTCTTGGGTTCTAACCTGTTGCAT (site GGGTCTTCTAT)	0.575

Sequence	recombinant barcode read abundance (log10)
GGGTTTGCTTGGGTTCTAACCTGTTGCCT (site GAGTTTGCTAG)	0
GGGTTTGCTTGGGTTCTAACCTGTTGCCT (site GCGTTTGCTAG)	0.0869
GGGTTTGCTTGGGTTCTAACCTGTTGCCT (site GGGTTTGCTAG)	1.14
GGGTTTGCTTGGGTTCTAACCTGTTGCCT (site GTGTTTGCTAG)	0.667
GGTACTACTTGGGTTCTAACCTGTTGCAT (site CGTACTACTGT)	0.0302
GGTACTACTTGGGTTCTAACCTGTTGCAT (site GGTACTACTAT)	0.54
GGTAGATCTTGGGTTCTAACCTGTTGCTT (site GGTAGATCTAA)	0.599
GGTAGATCTTGGGTTCTAACCTGTTGCTT (site GGTAGGCCTAA)	0.0553
GGTCAAACTTGGGTTCTAACCTGTTGCCT (site GGTCAAACTAG)	0.492
GGTCAAACTTGGGTTCTAACCTGTTGCCT (site GGTCCAACTAG)	0.0951
GGTCAAACTTGGGTTCTAACCTGTTGCCT (site GGTCGAACTAG)	0.109
GGTCAAACTTGGGTTCTAACCTGTTGCCT (site GGTCTAACTAG)	0.0309
GGTCAACCTTGGGTTCTAACCTGTTGCGG (site GGTCAACCTCC)	2.5
GGTCAACCTTGGGTTCTAACCTGTTGCGG (site TACTCTTCTAG)	0.113
GGTCATACTTGGGTTCTAACCTGTTGCCT (site GGTCATACTAG)	0.455
GGTCATACTTGGGTTCTAACCTGTTGCCT (site GGTCATCCTAG)	0.0309
GGTCATACTTGGGTTCTAACCTGTTGCCT (site GGTCATGCTAG)	0.074
GGTCATACTTGGGTTCTAACCTGTTGCCT (site GGTCATTCTAG)	0.246
GGTCCTCCTTGGGTTCTAACCTGTTGCGA (site GGTCCTCCTTC)	0.847
GGTCCTCCTTGGGTTCTAACCTGTTGCGA (site TCCTAGTCTCT)	0.229
GGTCGCGCTTGGGTTCTAACCTGTTGCCT (site GGTCGAGCTAG)	0.113
GGTCGCGCTTGGGTTCTAACCTGTTGCCT (site GGTCGCGCTAG)	0.535

Sequence	recombinant barcode read abundance (log10)
GGTCGCGCTTGGGTTCTAACCTGTTGCCT (site GGTCGGGCTAG)	0.832
GGTCGCGCTTGGGTTCTAACCTGTTGCCT (site GGTCGTGCTAG)	0.0211
GGTGACCCTTGGGTTCTAACCTGTTGCAT (site GGTGACCCTAT)	2.75
GGTGACCCTTGGGTTCTAACCTGTTGCAT (site TCGTGAGCTCA)	0.97
GGTGACCCTTGGGTTCTAACCTGTTGCGG (site GGTAACCCTCC)	2.05
GGTGACCCTTGGGTTCTAACCTGTTGCGG (site GGTCACCCTCC)	0.224
GGTGACCCTTGGGTTCTAACCTGTTGCGG (site GGTGACCCTCC)	2.73
GGTGACCCTTGGGTTCTAACCTGTTGCGG (site GGTTACCCTCC)	0.33
GGTGCTCCTTGGGTTCTAACCTGTTGCTT (site ATTGCTCCTAA)	0.135
GGTGCTCCTTGGGTTCTAACCTGTTGCTT (site GGTGCTCCTAA)	0.0711
GGTGGGTCTTGGGTTCTAACCTGTTGCTT (site GGTGGGTCTAA)	1.9
GGTGGGTCTTGGGTTCTAACCTGTTGCTT (site GGTGGGTCTAC)	0.663
GGTGGGTCTTGGGTTCTAACCTGTTGCTT (site GGTGGGTCTAG)	0.929
GGTGGGTCTTGGGTTCTAACCTGTTGCTT (site GGTGGGTCTAT)	1.69
GGTTAGCCTTGGGTTCTAACCTGTTGCCT (site GGTTAGCCTAG)	0.579
GGTTAGCCTTGGGTTCTAACCTGTTGCCT (site TGTTAGCCTTG)	0.0783
GGTTATCCTTGGGTTCTAACCTGTTGCGG (site GGTTATCCTCC)	1.17
GGTTATCCTTGGGTTCTAACCTGTTGCGG (site TTACGCTCTTA)	0.0896
GGTTCACCTTGGGTTCTAACCTGTTGCAG (site GGTTCACCTCT)	1.05
GGTTCACCTTGGGTTCTAACCTGTTGCAG (site GGTTGACCTAT)	0.0489
GGTTGAACTTGGGTTCTAACCTGTTGCAT (site GCTTGAACTAA)	0.128
GGTTGAACTTGGGTTCTAACCTGTTGCAT (site GGTTGAACTAT)	0.0521

Sequence	recombinant barcode read abundance (log10)
GGTTGCACTTGGGTTCTAACCTGTTGCCT (site AGTTGCTCTAG)	0.189
GGTTGCACTTGGGTTCTAACCTGTTGCCT (site GGTTGCACTAG)	0.4
GTAAACTCTTGGGTTCTAACCTGTTGCCT (site GTAAACTCTAG)	1.98
GTAAACTCTTGGGTTCTAACCTGTTGCCT (site GTCAACTCTAG)	0.0684
GTAAACTCTTGGGTTCTAACCTGTTGCCT (site GTGAACTCTAG)	0.0821
GTAAACTCTTGGGTTCTAACCTGTTGCCT (site GTTAACTCTAG)	0.427
GTAAAGTCTTGGGTTCTAACCTGTTGCCA (site CTAAAGTCTTG)	0.0579
GTAAAGTCTTGGGTTCTAACCTGTTGCCA (site GTAAAGTCTTG)	0.276
GTAAATCCTTGGGTTCTAACCTGTTGCCT (site ATAAATCCTAG)	0.141
GTAAATCCTTGGGTTCTAACCTGTTGCCT (site CTAAATCCTAG)	0.222
GTAAATCCTTGGGTTCTAACCTGTTGCCT (site GTAAATCCTAG)	1.01
GTAAATCCTTGGGTTCTAACCTGTTGCCT (site TTAAATCCTAG)	0.132
GTAAATGCTTGGGTTCTAACCTGTTGCCT (site GTAAATGCTAG)	1.36
GTAAATGCTTGGGTTCTAACCTGTTGCCT (site GTAACTGCTAG)	0.0397
GTAAATGCTTGGGTTCTAACCTGTTGCCT (site GTAAGTGCTAG)	0.0927
GTAAATGCTTGGGTTCTAACCTGTTGCCT (site GTAATTGCTAG)	0.0782
GTAACCGCTTGGGTTCTAACCTGTTGCCT (site GTAACCGCTAG)	1.64
GTAACCGCTTGGGTTCTAACCTGTTGCCT (site GTCACCGCTAG)	0.228
GTAACCGCTTGGGTTCTAACCTGTTGCCT (site GTGACCGCTAG)	0.115
GTAACCGCTTGGGTTCTAACCTGTTGCCT (site GTTACCGCTAG)	0.432
